Data as given in patent US8846107B2, “In situ generation of peroxycarboxylic acids at alkaline pH, and methods of use thereof” (priority 2010, dated 2014).

Columns and labels:
[1] = Coupling of precipitated POOA solution by surfactants and hydrotropes; format: physicochemical; settings: 1000 ppm POOA in DI Water
Description: A variety of surfactants were analyzed for coupling and/or dispersion stabilizing of a peroxycarboxylic acid composition generated according to the methods of the invention. In particular, a peroxyoctanoic acid (POOA) composition in deionized water produced according to the invention was analyzed for coupling and/or dispersion stabilization using the dispersing agents set forth in Table 14A.
Given the very limited water solubility of POOA in its protonated form, acidification of the alkaline perhydrolysis solutions of the same causes immediate precipitation and rapid phase separation. In this example various surfactants and hydrotropes were evaluated for their ability to couple the POOA. In Table 14A it can be seen that the most efficient agents for coupling an already precipitated solution of POOA were samples I and II.

[2] = Dispersion stability of acidified POOA solutions with dispersing agents; format: physicochemical
Description: The SLS, LAS and SOA dispersing agents were then further examined for efficacy in stabilizing and/or dispersing in 1% or lower sulfuric acid solutions. Solutions were made according to the following order (3, 6, 9, 12, 1, 4, 7, 10, 2, 5, 8, 11, 13, 14). Solution 13 was made as 1 through 12 with the addition of 50 mL of 5 grain hard water to the aliquot of alkaline reaction solution followed by swirling with the surface aliquot and then additional 50 mL of 5 grain hard water, followed within about 5 seconds by 50 mL of 5 grain 2% sulfuric acid and swirled. Solution 14 was made by direct addition of 1% sulfuric acid (5 grain) without pre-dilution, but after moments of swirling with SLS aliquot. All concentrations are shown in ppm.
For the POOA solutions the targeted peracid concentration was based upon initial average of about 5.40 wt-% of ongoing cold alkaline peracid hydrolysis according to the invention (**), wherein the aliquot was constant while POOA was increasing.
The appearance of an oil sheen was regarded as a pass or fail.

[3] = system: Escherichia coli ATCC 11229; experiment: Sanitizing efficacy of in situ generated peroxycarboxylic acids; format: cell-based; settings: 25° C.
Description: A study was run to evaluate the sanitizing efficacy of mixtures of peroxycarboxylic acids generated in situ from esters under alkaline conditions. For this study the following ester based peroxycarboxylic acid forming compositions were used.
The above Peroxycarboxylic acid premixes were then tested alone at various concentrations, and mixed at various concentrations against Staphylococcus aureus ATCC 6538, and Escherichia coli ATCC 11229.
The test substances were tested against Staphylococcus aureus ATCC 6538, and Escherichia coli ATCC 11229 at 25° C.±1° C. for 30 seconds. A neutralizer screen was performed as part of the testing to verify that the neutralizer adequately neutralized the product and was not detrimental to the tested organisms.

[4] = 35 ppm POAA, pH 5.00, 30 seconds
[5] = 61 ppm POAA, pH 5.00, 30 seconds
[6] = 13 ppm POOA, pH 4.98, 30 seconds
[7] = 15 ppm POOA, pH 5.01, 30 seconds
[8] = 20 ppm POOA, pH 4.98, 30 seconds

CCCCCCCCCCCCOS(=O)(=O)[O-].[Na+] [I, Sodium Lauryl Sulfate]
Amount of (B) Required for Coupling (g/200 g aq POOA) [1]: 0.64 g/200 g aq POOA
dispersant performance for acidified POOA ([2]; acidic, aqueous dispersions of POOA): exceptional dispersant

CC(=O)OO [POAA, peroxyacetic acid]
Average Log10 Survivors [3, 4]: 7.27 Log10
Log Reduction [3, 4]: 0.78 Log
Survivors (CFU/mL) [3, 4]: 1.85 × 10^7 CFU/mL
Average Log10 Survivors [3, 5]: 3.93 Log10
Log Reduction [3, 5]: 4.12 Log
Survivors (CFU/mL) [3, 5]: 3.0 × 10^3 CFU/mL

CCCCCCCC(=O)OO [POOA, peroxyoctanoic acid]
Average Log10 Survivors [3, 6]: 7.59 Log10
Log Reduction [3, 6]: 0.46 Log
Survivors (CFU/mL) [3, 6]: 4.22 × 10^7 CFU/mL
Average Log10 Survivors [3, 7]: 7.15 Log10
Log Reduction [3, 7]: 0.90 Log
Survivors (CFU/mL) [3, 7]: 1.06 × 10^7 CFU/mL
Average Log10 Survivors [3, 8]: 5.85 Log10
Log Reduction [3, 8]: 2.20 Log

CCCCCCCCS(=O)(=O)[O-].[Na+] [VII, Sodium octanesulfonate]
Amount of (B) Required for Coupling (g/200 g aq POOA) [1]: 6.60 g/200 g aq POOA

CCCCC(CC)COC(=O)CC(C(=O)OCC(CC)CCCC)S(=O)(=O)[O-].[Na+] (centres unmarked) [X, Sodium dioctyl Sulfosuccinates]
Amount of (B) Required for Coupling (g/200 g aq POOA) [1]: >2.0 g/200 g aq POOA

Alkyl Polyglycosides [VI]
Amount of (B) Required for Coupling (g/200 g aq POOA) [1]: 2.46 g/200 g aq POOA

Linear Aryl Sulfonate [II]
Amount of (B) Required for Coupling (g/200 g aq POOA) [1]: 0.65 g/200 g aq POOA
Amount of (B) Required for Coupling (g/200 g aq POOA) ([1]; listed as LAS): 0.64 g/200 g aq POOA
oil sheen at 23 h ([2]; acidified POOA in 10,000 ppm H2SO4, oil sheen regarded as fail): minimal surface oil

Sodium Lauryl Ether Sulfate [III]
Amount of (B) Required for Coupling (g/200 g aq POOA) [1]: >0.94 g/200 g aq POOA
